GI50 and TGI data for eleven molecules are collected here from PubChem BioAssay (NCI).

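1) Cells in 96-well plates. 2) Compound, 48 h, 5 concentrations. 3) Linear interpolation between surrounding doses. 4) Unreached endpoint = highest concentration. GI50 is the concentration that inhibits growth by half. TGI denotes the concentration required for complete inhibition of growth.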 Some results are limits rather than exact numbers.

Test systems include SR leukemia; A498 renal; UACC-62 melanoma; PC-3 prostate; SW-620 colon; OVCAR-5 ovarian; NCI-H23 lung; SF-539 CNS; OVCAR-3 ovarian; MALME-3M melanoma.
Common to all, as to experiment: NCI tumour cell line growth inhibition, 48 h

For `CCOC(=O)C(=Cc1cccc(Cl)c1)C(=O)OCC`, the GI50 in the test on SR leukemia was 1.55 µM; with A498 renal it was 11.9 µM; in the test with UACC-62 melanoma, 1.65 µM; with PC-3 prostate, 2.05 µM; in the test with SW-620 colon it was 2.03 µM; in the test on OVCAR-5 ovarian, 1.8 µM. The GI50 was 2.32 µM in the test with NCI-H23 lung, 1.66 µM in the test with SF-539 CNS and 1.86 µM in the test with OVCAR-3 ovarian. The TGI with SR leukemia was over 100 µM; in the test on A498 renal it was 24.2 µM; with UACC-62 melanoma it was 3.58 µM; in the test on PC-3 prostate it was 4.21 µM; in the test on SW-620 colon, 4.1 µM; in the test with OVCAR-5 ovarian, 3.54 µM. Further, the results for the TGI in the test on NCI-H23 lung, with SF-539 CNS and in the test with OVCAR-3 ovarian were 6.45 µM, 3.14 µM and 3.6 µM, respectively.
Consider `O=C(c1ccc(Cl)cc1)c1cnc(Nc2ccccc2Cl)s1`, for which the TGI is 46.7 µM in the test with MALME-3M melanoma; over 100 µM with SR leukemia; 27.3 µM in the test on A498 renal; 66.4 µM in the test with UACC-62 melanoma; 55.5 µM in the test with PC-3 prostate; over 100 µM in the test with SW-620 colon. Moreover, the TGI in the test with OVCAR-5 ovarian came out at 95.5 µM; with NCI-H23 lung, 53.7 µM; in the test with SF-539 CNS it was 55.3 µM; in the test on OVCAR-3 ovarian, 40.9 µM.
As to `COc1ccc2[nH]cc(-c3nc(-c4c[nH]c5ncccc45)cs3)c2c1`, the GI50 with MALME-3M melanoma is 4.95 µM; in the test with SR leukemia it was 2.91 µM; with A498 renal, 1.16 µM; in the test with UACC-62 melanoma, 3.66 µM; in the test on PC-3 prostate it was 4.33 µM; in the test on SW-620 colon it was 3.46 µM. For the same molecule, the GI50 was over 100 µM in the test on OVCAR-5 ovarian, 4.38 µM in the test on NCI-H23 lung, 4.88 µM in the test with SF-539 CNS and 6.04 µM with OVCAR-3 ovarian. Besides, the TGI in the test with MALME-3M melanoma, in the test on SR leukemia, in the test with A498 renal, in the test on UACC-62 melanoma, in the test with PC-3 prostate and in the test with SW-620 colon was over 100 µM throughout. Besides, the TGI in the test with OVCAR-5 ovarian, in the test with NCI-H23 lung, in the test on SF-539 CNS and with OVCAR-3 ovarian was over 100 µM in each case.
With `Cc1[nH]c2ccccc2c1-c1cc(-c2cc(-c3c(C)[nH]c4ccccc34)on2)no1`, the TGI was over 100 µM with MALME-3M melanoma; 96.7 µM in the test with SR leukemia; over 100 µM in the test with A498 renal; over 100 µM in the test with UACC-62 melanoma; over 100 µM in the test with PC-3 prostate; over 100 µM in the test on SW-620 colon. Further, the TGI in the test on OVCAR-5 ovarian, in the test with NCI-H23 lung, with SF-539 CNS and in the test with OVCAR-3 ovarian was over 100 µM throughout.
Consider `CC(=O)n1c2c(c(=O)n1-c1ccccc1)S(=O)CCC2` (stereo unspecified), for which the TGI in the test on MALME-3M melanoma was over 100 µM; with SR leukemia it was 22.8 µM; in the test with A498 renal it was over 100 µM; in the test on UACC-62 melanoma, over 100 µM; in the test with SW-620 colon, over 100 µM; with OVCAR-5 ovarian it was over 100 µM. Besides, the TGI in the test with NCI-H23 lung, with SF-539 CNS and in the test on OVCAR-3 ovarian was over 100 µM in each case.
With `CCCCCCC[CH2][Sn]1([CH2]CCCCCCC)[O]C(=O)c2cccnc2[S]1`, the GI50 with MALME-3M melanoma, in the test with SR leukemia, in the test with A498 renal, in the test with UACC-62 melanoma, in the test on SW-620 colon and in the test with OVCAR-5 ovarian was over 100 µM in each case. Also, the GI50 in the test with NCI-H23 lung, in the test with SF-539 CNS and in the test on OVCAR-3 ovarian was over 100 µM throughout. Further, the TGI with MALME-3M melanoma, in the test with SR leukemia, in the test on A498 renal, in the test with UACC-62 melanoma, in the test on SW-620 colon and with OVCAR-5 ovarian was over 100 µM each time. For the same molecule, the TGI in the test with NCI-H23 lung, with SF-539 CNS and with OVCAR-3 ovarian was over 100 µM each time.
Consider `COc1ccc(-c2cc(-c3ccccc3)c(C#N)c(=O)n2C2OC(CO)C(O)C(O)C2O)cc1` (stereo unspecified), for which the TGI with MALME-3M melanoma, in the test with SR leukemia, in the test on A498 renal, in the test on UACC-62 melanoma, in the test on SW-620 colon and with OVCAR-5 ovarian was over 100 µM throughout. Moreover, the TGI in the test on NCI-H23 lung, in the test with SF-539 CNS and with OVCAR-3 ovarian was over 100 µM in each case.
Turning to `CC(=O)OC12c3ccccc3-c3ccccc3C1C1C(=O)N(C)C(=O)C12Cl` (stereo unspecified), the TGI in the test with MALME-3M melanoma, in the test on SR leukemia, in the test with A498 renal, in the test on PC-3 prostate, in the test on SW-620 colon and in the test with OVCAR-5 ovarian was over 10 µM throughout. The TGI with NCI-H23 lung, with SF-539 CNS and in the test with OVCAR-3 ovarian was over 10 µM throughout.
For `CC[C@@]12N=C(N(C)C)C[C@]1(O)ON=C2C`, the TGI in the test on MALME-3M melanoma, with SR leukemia, in the test on A498 renal, with SW-620 colon, in the test with NCI-H23 lung and in the test with SF-539 CNS was over 100 µM throughout. For the same molecule, the TGI in the test with OVCAR-3 ovarian was over 100 µM.
Take `Cc1ccc(-c2nc3ccc([N+](=O)[O-])cc3[nH]2)cc1`: the TGI with MALME-3M melanoma, in the test on SR leukemia, with UACC-62 melanoma, in the test on PC-3 prostate, in the test on SW-620 colon and in the test with NCI-H23 lung was over 100 µM in each case. Moreover, the TGI in the test on SF-539 CNS and in the test on OVCAR-3 ovarian was over 100 µM each time.
Consider `COc1ccc(NC(=O)/C(N=O)=C(/C)O)cc1`, for which the TGI in the test on MALME-3M melanoma is over 100 µM; with SR leukemia, over 100 µM; in the test on A498 renal, over 100 µM; in the test with UACC-62 melanoma, over 100 µM; in the test on SW-620 colon, 30 µM; with OVCAR-5 ovarian it was over 100 µM. The TGI with NCI-H23 lung and in the test on SF-539 CNS was over 100 µM in each case.
